Measurements from article PMC5872235 (2018).
Converted amounts (≈) assume the structure as drawn. “And” between values parts separate entries of the source, which are not always exact repeats. Identical values can stand only once. Like-named read-outs stand apart in the source and are kept apart here. Peptide text beside a SMILES is read from it.

What was measured:
[1] = test system: Staphylococcus aureus strains isolated from atopic dermatitis (AD) patients; experiment: microbe, parasite or virus in culture; conditions: 18 h
[2] = test system: Staphylococcus aureus strains isolated from control group; experiment: microbe, parasite or virus in culture; conditions: 18 h
[3] = test system: S. aureus in control group; assay type: cell-based, Staphylococcus aureus
[4] = test system: S. aureus in patients with atopic dermatitis; assay type: cell-based, Staphylococcus aureus
[5] = test system: Superantigen positive Staphylococcus aureus (n = 52); experiment: microbe, parasite or virus in culture; conditions: 18 h
[6] = test system: Staphylococcus aureus strains isolated from control group
[7] = test system: Superantigen negative Staphylococcus aureus (n = 48); experiment: microbe, parasite or virus in culture; conditions: 18 h
[8] = test system: Superantigen negative Staphylococcus aureus (n = 48)
[9] = test system: Superantigen positive Staphylococcus aureus (n = 52)
[10] = test system: vancomycin intermediate S. aureus (VISA) isolates; conditions: cited from earlier work
[11] = test system: Staphylococcus aureus strains isolated from atopic dermatitis (AD) patients
S. aureus isolates = conditions: cited from earlier work
[12] = Superantigen negative (n = 48, 18 h)
[13] = Superantigen positive (n = 52, 18 h)
[14] = strains isolated from control group, 18 h
[15] = strains isolated from atopic dermatitis (AD) patients, 18 h

Compound	MIC50 [1] [µg/mL]	MIC90 [1] [µg/mL]	MIC50 [2] [µg/mL]	MIC90 [2] [µg/mL]	Resistance (%), resistant strains [4] [%]	MIC50 [5] [µg/mL]	MIC90 [5] [µg/mL]	MIC Range [6] [µg/mL]	MIC50 [7] [µg/mL]	MIC90 [7] [µg/mL]	MIC50 [8, 12] [µg/mL]	MIC90 [8, 12] [µg/mL]	MIC Range [8, 12] [µg/mL]	MIC50 [9, 13] [µg/mL]	MIC90 [9, 13] [µg/mL]	MIC Range [9, 13] [µg/mL]	MIC Range [8] [µg/mL]	MIC Range [11] [µg/mL]	MIC Range [9] [µg/mL]	further results
CC1(C)S[C@@H]2[C@H](NC(=O)[C@H](N)c3ccccc3)C(=O)N2[C@H]1C(=O)O [Ampicillin, ampicillin]	2 (≈ 5.72 µM)	16 (≈ 45.8 µM)	16 (≈ 45.8 µM)	32 (≈ 91.6 µM)	58.5	1 (≈ 2.86 µM)	8 (≈ 22.9 µM)	0.25 to 32	8 (≈ 22.9 µM)	16 (≈ 45.8 µM)										Resistance (%), resistant strains [3]: 4%
CC[C@H](C)[C@H](NC(=O)[C@H](CCCCN)NC(=O)[C@H](CCCCN)NC(=O)[C@H](Cc1ccccc1)NC(=O)[C@H](CC(C)C)NC(=O)[C@H](CCCCN)NC(=O)[C@H](Cc1c[nH]c2ccccc12)NC(=O)[C@@H](N)CCCCN)C(=O)NCC(=O)N[C@@H](C)C(=O)N[C@H](C(=O)N[C@@H](CC(C)C)C(=O)N[C@@H](CCCCN)C(=O)N[C@H](C(=O)N[C@@H](CC(C)C)C(N)=O)C(C)C)C(C)C [CAMEL] (H-KWKLFKKIGAVLKVL-NH2)											4 (≈ 2.26 µM)	4 (≈ 2.26 µM)	2 to 128	4 (≈ 2.26 µM)	8 (≈ 4.52 µM)	1 to 8				
CC[C@H](C)[C@H](NC(=O)[C@@H](NC(=O)[C@H](CO)NC(=O)[C@H](C)NC(=O)[C@@H](NC(=O)[C@H](CCCCN)NC(=O)[C@H](CCCCN)NC(=O)[C@@H](NC(=O)[C@@H](NC(=O)[C@H](CC(=O)O)NC(=O)[C@H](Cc1ccccc1)NC(=O)[C@H](CC(C)C)NC(=O)CN)C(C)C)[C@@H](C)CC)C(C)C)C(C)C)C(=O)NCC(=O)NCC(=O)N[C@@H](CC(C)C)C(N)=O [Citropin 1.1] (H-GLFDVIKKVASVIGGL-NH2)											16 (≈ 9.91 µM)	32 (≈ 19.8 µM)	1 to 128	16 (≈ 9.91 µM)	16 (≈ 9.91 µM)	1 to 64				
CCCCCCCCCC(=O)N[C@@H](Cc1c[nH]c2ccccc12)C(=O)N[C@H](CC(N)=O)C(=O)N[C@@H](CC(=O)O)C(=O)N[C@@H]1C(=O)NCC(=O)N[C@@H](CCCN)C(=O)N[C@@H](CC(=O)O)C(=O)N[C@H](C)C(=O)N[C@@H](CC(=O)O)C(=O)NCC(=O)N[C@H](CO)C(=O)N[C@@H]([C@H](C)CC(=O)O)C(=O)N[C@@H](CC(=O)c2ccccc2N)C(=O)O[C@@H]1C [Daptomycin, daptomycin]					54.7						2 (≈ 1.23 µM)	4 (≈ 2.47 µM)	0.0625 to 4	2 (≈ 1.23 µM)	2 (≈ 1.23 µM)	0.125 to 4				Resistance (%), resistant strains [3]: 4%; MIC50 [6, 14]: 2 µg/mL (≈ 1.23 µM); MIC90 [6, 14]: 2 µg/mL (≈ 1.23 µM); MIC Range [6, 14]: 1 to 2 µg/mL; MIC [10]: 4 µg/mL (≈ 2.47 µM); minimum inhibitory concentration (MIC) [10]: 2 µg/mL (≈ 1.23 µM); MIC50 [11, 15]: 2 µg/mL (≈ 1.23 µM); MIC90 [11, 15]: 4 µg/mL (≈ 2.47 µM); MIC Range [11, 15]: 0.125 to 4 µg/mL
CC[C@H]1OC(=O)[C@H](C)[C@@H](O[C@H]2C[C@@](C)(OC)[C@@H](O)[C@H](C)O2)[C@H](C)[C@@H](O[C@@H]2O[C@H](C)C[C@H](N(C)C)[C@H]2O)[C@](C)(O)C[C@@H](C)C(=O)[C@H](C)[C@@H](O)[C@]1(C)O [Erythromycin, erythromycin]	0.5 (≈ 0.681 µM)	> 512	1 (≈ 1.36 µM)	> 512		0.5 (≈ 0.681 µM)	> 512		0.5 (≈ 0.681 µM)	256 (≈ 349 µM)										rate of resistance (S. aureus isolates): 14% and 18%
CC(=O)O[C@H]1C[C@@]2(C)[C@@H](C[C@@H](O)[C@H]3[C@@]4(C)CC[C@@H](O)[C@@H](C)[C@@H]4CC[C@@]32C)/C1=C(\CCC=C(C)C)C(=O)O [Fusidic acid, fusidic acid]	0.125 (≈ 0.242 µM)	8 (≈ 15.5 µM)	1 (≈ 1.94 µM)	16 (≈ 31 µM)	15.5	0.125 (≈ 0.242 µM)	8 (≈ 15.5 µM)	0.125 to 16	0.125 (≈ 0.242 µM)	4 (≈ 7.74 µM)							0.0312 to 32	0.312 to 32	0.0625 to 32	S. aureus isolates resistant (S. aureus isolates): 50%
CC[C@H](C)[C@H](NC(=O)[C@H](CCCCN)NC(=O)[C@H](CCC(=O)O)NC(=O)[C@H](CCCCN)NC(=O)[C@H](CO)NC(=O)[C@H](CCCCN)NC(=O)[C@H](CCCNC(=N)N)NC(=O)[C@H](Cc1ccccc1)NC(=O)[C@H](Cc1ccccc1)NC(=O)[C@H](CC(=O)O)NC(=O)CNC(=O)[C@H](CC(C)C)NC(=O)[C@@H](N)CC(C)C)C(=O)NCC(=O)N[C@@H](CCCCN)C(=O)N[C@@H](CCC(=O)O)C(=O)N[C@@H](Cc1ccccc1)C(=O)N[C@@H](CCCCN)C(=O)N[C@@H](CCCNC(=N)N)C(=O)N[C@H](C(=O)N[C@H](C(=O)N[C@@H](CCC(N)=O)C(=O)N[C@@H](CCCNC(=N)N)C(=O)N[C@H](C(=O)N[C@@H](CCCCN)C(=O)N[C@@H](CC(=O)O)C(=O)N[C@@H](Cc1ccccc1)C(=O)N[C@@H](CC(C)C)C(=O)N[C@@H](CCCNC(=N)N)C(=O)N[C@@H](CC(N)=O)C(=O)N[C@@H](CC(C)C)C(=O)N[C@H](C(=O)N1CCC[C@H]1C(=O)N[C@@H](CCCNC(=N)N)C(=O)N[C@H](C(=O)N[C@@H](CCC(=O)O)C(=O)N[C@@H](CO)C(=O)O)[C@@H](C)O)C(C)C)[C@@H](C)CC)C(C)C)[C@@H](C)CC [LL-37]											128 (≈ 28.5 µM)	> 512		64 (≈ 14.2 µM)	256 (≈ 57 µM)					
CCC[C@@H]1C[C@@H](C(=O)N[C@@H]([C@H]2O[C@H](SC)[C@H](O)[C@@H](O)[C@H]2O)[C@@H](C)O)N(C)C1 [Lincomycin, lincomycin]	1 (≈ 2.46 µM)	64 (≈ 157 µM)	0.5 (≈ 1.23 µM)	> 512	37.5	1 (≈ 2.46 µM)	16 (≈ 39.4 µM)		1 (≈ 2.46 µM)	64 (≈ 157 µM)										
CC(=O)NC[C@H]1CN(c2ccc(N3CCOCC3)c(F)c2)C(=O)O1 [Linezolid, linezolid]	1 (≈ 2.96 µM)	4 (≈ 11.9 µM)	2 (≈ 5.93 µM)	4 (≈ 11.9 µM)		1 (≈ 2.96 µM)	2 (≈ 5.93 µM)	1 to 4	1 (≈ 2.96 µM)	4 (≈ 11.9 µM)							0.25 to 4	0.25 to 32	0.5 to 4	Susceptibility of all strains, in words [3]: sensitive; Resistance of isolates, in words [4]: none of the isolates were resistant
C/C(=C\C(=O)OCCCCCCCCC(=O)O)C[C@@H]1OC[C@H](C[C@@H]2O[C@H]2[C@@H](C)[C@H](C)O)[C@@H](O)[C@H]1O [Mupirocin, mupirocin]	0.5 (≈ 0.999 µM)	> 512	0.25 (≈ 0.499 µM)	32 (≈ 63.9 µM)	17.5	0.5 (≈ 0.999 µM)	> 512	0.125 to 32	0.25 (≈ 0.499 µM)	512 (≈ 1020 µM)										Susceptibility of all strains, in words [3]: sensitive
CC[C@H](C)[C@H](NC(=O)CNC(=O)[C@H](CO)NC(=O)[C@H](CC(C)C)NC(=O)[C@@H](NC(=O)[C@H](CCCNC(=N)N)NC(=O)CNC(=O)[C@@H](NC(=O)[C@H](CC(C)C)NC(=O)[C@@H]1CCCN1C(=O)[C@H](CC(C)C)NC(=O)[C@@H](N)Cc1ccccc1)[C@@H](C)CC)C(C)C)C(=O)N[C@@H](CC(C)C)C(N)=O [Temporin A] (H-FLPLIGRVLSGIL-NH2)											8 (≈ 5.73 µM)	32 (≈ 22.9 µM)	4 to 32	8 (≈ 5.73 µM)	16 (≈ 11.5 µM)	2 to 64				
CN(C)[C@@H]1C(O)=C(C(N)=O)C(=O)[C@@]2(O)C(O)=C3C(=O)c4c(O)cccc4[C@@](C)(O)[C@H]3C[C@@H]12 [Tetracycline, tetracycline]	0.5 (≈ 1.13 µM)	32 (≈ 72 µM)	0.5 (≈ 1.13 µM)	32 (≈ 72 µM)	15.5	0.25 (≈ 0.563 µM)	32 (≈ 72 µM)	0.125 to 32	0.5 (≈ 1.13 µM)	32 (≈ 72 µM)							0.0625 to 32	0.125 to 64	0.0625 to 32	
CN[C@H](CC(C)C)C(=O)N[C@H]1C(=O)N[C@@H](CC(N)=O)C(=O)N[C@H]2C(=O)N[C@H]3C(=O)N[C@H](C(=O)N[C@H](C(=O)O)c4cc(O)cc(O)c4-c4cc3ccc4O)[C@H](O)c3ccc(c(Cl)c3)Oc3cc2cc(c3O[C@@H]2O[C@H](CO)[C@@H](O)[C@H](O)[C@H]2O[C@H]2C[C@](C)(N)[C@H](O)[C@H](C)O2)Oc2ccc(cc2Cl)[C@H]1O [Vancomycin, vancomycin]	0.5 (≈ 0.345 µM)	2 (≈ 1.38 µM)	1 (≈ 0.69 µM)	1 (≈ 0.69 µM)		0.5 (≈ 0.345 µM)	1 (≈ 0.69 µM)	0.25 to 1	1 (≈ 0.69 µM)	2 (≈ 1.38 µM)							0.125 to 2	0.125 to 8	0.125 to 2	Susceptibility of all strains, in words [3]: sensitive; Resistance of isolates, in words [4]: none of the isolates were resistant
